Experimental data from PMC7824033, “Flavones, Flavonols, and Glycosylated Derivatives—Impact on Candida albicans Growth and Virulence, Expression of CDR1 and ERG11, Cytotoxicity” (Pharmaceuticals, 2020).
Converted amounts (≈) assume the structure as drawn. “Also recorded” adds a separate entry of the source. Like-named read-outs stand apart in the source and are kept apart here.

Assays:
[1] = test system: C. albicans 475/15 hyphal growth; experiment: Anti-hyphal forming activity; assay type: cell-based, Candida albicans; details: MIC, 4 h, YPD + 10% FBS
Procedure: C. albicans 475/15 cells were incubated with MIC of tested compounds in YPD + 10% FBS, at 37 °C, for 4 h. Cells were examined under microscope (Nikon Eclipse TS2, Amsterdam, Netherland) and number of cells, growing in the yeast or hyphal and germ tube formations, was determined. Assay was performed in triplicate and percentage of hyphae was determined.

[2] = test system: C. albicans 475/15 biofilm formation; experiment: Inhibition of biofilm formation (crystal violet); assay type: cell-based, Candida albicans
Procedure: Potential of selected compounds to interfere with C. albicans 475/15 biofilm formation was investigated as previously described. Briefly, C. albicans 475/15 was incubated with serial dilution of the compounds (MIC and subMICs) in YPD medium, in 96-well microtiter plates with adhesive bottom (Sarstedt, Nümbrecht, Germany), at 37 °C for 24 h. After incubation, wells were washed twice with sterile PBS and methanol was added into each well. After fixation, methanol was discarded, and the plate was air dried. Formed biofilms were stained with 0.1% crystal violet (Bio-Merieux, Craponne, France) for 30 min. The plate was gently washed under the tap of water and air dried. The stain bound to the remaining biofilms was dissolved with ethanol (96%, Zorka, Šabac, Serbia). Absorbance was read on a Multiskan™ FC Microplate Photometer, Thermo Scientific™. The percentage of inhibition of biofilm formation was calculated by the formula:[(A620control − A620sample)/A620control] × 100

CDR1 [3] = experiment: Expression of CDR1 (qPCR); assay type: cell-based, Candida albicans; details: treatment with MIC
Procedure: Total RNA was isolated as described by Sanglard et al. with some modifications. C. albicans 475/15 was grown with agitation at 30 °C in YEPD until OD540 = 0.4. C. albicans cells were incubated with MIC of compounds in YEPD at 30 °C with agitation for 30 min. Cells were centrifuged (4600 rpm, 4 °C for 5 min (Rotanata 460 R, Hettich, Tuttlingen, Germany)) and the pellet was resuspended in 300 µL of RNA buffer (0.1 M Tris-HCl pH 7.5, 0.1M LiCl, 10mM EDTA, 0.5% SDS). The pellet was homogenized with 200 µL of DEPC treated glass beads and 300 µL of Phenol:Chloroform:Isoamyl Alcohol (Sigma-Aldrich, Darmstadt, Germany) in Precellys Evolution tissue homogenizer (Bertion instruments, Montigny-le-Bretonneux, France) at 4500 rpm for 5 s. After centrifugation (14,000 rpm, 4 °C, 1 min (Universal 32 R, Hettich, Tuttlingen, Germany)) 200 µL of supernatant was vortexed with 250 µL of Phenol:Chloroform:Isoamyl Alcohol for 10 s. Samples were centrifuged (14,000 rpm, 4 °C, 1 min) and 200 µL of supernatant was transferred to new tubes, 400 µL of ice-cold 99% ethanol was added to each tube, and they were kept on dry ice for 10 min. Samples were centrifuged (14,000 rpm, 4 °C, 2 min), pellet was washed with ethanol (70%), left to dry at room temperature, after which it was dissolved in 50 µL of DEPC treated water. Nanodrop (ND-1000, Witec AG, Sursee, Switzerland) was used for determination of concentration and purity of samples. RNA was stored at −80°C.
Amount of 10 µg RNA was incubated with 5 µL of DNAse buffer and 1 µL of DNAse at 37 °C for 30 min (DNA-free™ DNA Removal Kit, Ambion, Bleiswijk, Netherlands). After addition of DNAse inactivation reagent tubes were kept at room temperature with occasional vortexing for 5 min. Samples were centrifuged (14,000 rpm, 4°C, 2 min) and the concentration and quality of supernatant were analyzed on Nanodrop (ND-1000, Witec AG, Sursee, Switzerland).
Synthesis of cDNA was done with a Transcriptor High Fidelity cDNA synthesis kit (Roche). RNA (1 µg) was incubated with 60 µM random hexamer primers, in 11.4 µL of total sample volume, at 65 °C for 10 min. The mixture of Transcriptase reaction buffer 5×, Deoxynucleotide mix, DTT, Protector RNAse inhibitor, and Transcriptor High Fidelity Reverse Transcriptase was added to each tube according to manufacturer instructions. Synthesis of cDNA was completed by incubating the mixture at 50 °C for 30 min and 85 °C for 5 min (Peqstar thermocycler, Peqlab, Erlangen, Germany).
Wells of MicroAmp Fast 96-Well Reaction plate ((0.1 mL), Applied biosystems, Waltham, MA, USA) were incubated with 10 µL of mixture (cDNA, 2× MasterMix, primers, probe (Table 3), and water). Analysis was performed in StepOnePlus Real Time PCR system with relative standard curve method. Expression levels of CDR1 and ERG11 were normalized to expression of ACT1.

porcine liver cells PLP2 = experiment: Cytotoxicity, Sulforhodamine B assay
Procedure: (§1) Preparation of PLP2 cell line was performed with freshly harvested porcine liver supplied from a local slaughter house. Tissues from the liver were washed in Hank’s balanced salt solution comprising 100 U/mL penicillin and 100 μg/mL streptomycin and split into 1 × 1 mm^3 explants. Some of the prepared explants were set in 25 cm^2 tissue flasks in Dulbecco’s modified Eagle’s medium (DMEM) with 10% fetal bovine serum (FBS), 2 mM nonessential amino acids, 100 U/mL penicillin, and […] streptomycin, and incubation was conducted at 37 °C with 5% CO2 in a humidified atmosphere. The fresh medium was added every 2 days. Cultivation of the cells was further conducted with direct observation by the phase contrast microscope every 2–3 days. Before confluence was achieved, cells were subcultured and seeded in 96-well plates at a density of 1.0 × 10^4 cells per well and cultivated in DMEM supplemented with 10% FBS, 100 U/mL penicillin, and 100 μg/mL streptomycin. Previously described Sulforhodamine B assay was used for the determination of cytotoxicity. The obtained results were defined as GI50 values corresponding to the compound concentration that inhibits 50% of the net cell growth. Ellipticine was used as a positive control.

[4] = Cytotoxicity, Sulforhodamine B assay; details: pig
Procedure: as §1

C. albicans 475/15 [5] = test system: C. albicans 475/15; set-up: method as in PMID 28827996; details: previously published; cited from earlier work
3T3-L1 pre-adipocytes = details: up to 100 μM; cited from earlier work
CDR1 [6] = details: identical assay, previously published; cited from earlier work
ERG11 = details: identical assay, previously published; cited from earlier work
C. albicans 527/14 = experiment: Microdilution assay, MIC and MFC; assay type: cell-based; details: Candida albicans, C. albicans 527/14, mean ± SD of three replicates; for MFC: read-out: MFC; for MIC: read-out: MIC
Text: (§2) C. albicans was isolated from oral cavities of patients at ENT Clinic, Clinical Hospital Centre Zvezdara, Belgrade, Serbia after obtaining informed written consent and identified by using CHROMagar plates (Biomerieux, Craponne, France). Strains were maintained on Sabouraud Dextrose Agar (Merck, Darmstadt, Germany) and are deposited at the Mycological Laboratory, Department of Plant Physiology, Institute for Biological Research “Siniša Stanković”, National Institute of Republic of Serbia, University of Belgrade. The collection of samples was approved by the Ethical Committee (Office for Human Research Protection, Zvezdara University Medical Center, Belgrade, Serbia, document issued 26 October 2016).
(§3) Microdilution assay with some modification was used for determination of minimum inhibitory (MIC) and minimum fungicidal concentrations (MFC). Yeast cultures were adjusted to 1.0 × 10^5 CFU/per well with sterile PBS (Phosphate buffered saline, pH 7.4). The 96-well microtiter plates with serially diluted flavonoids (concentration range 0.3–75 µg/mL) in liquid broth were incubated at 37 °C for 24 h. After incubation, MIC and MFC were determined. The lowest concentrations that were not inducing microscopically observed growth were considered as MIC. For microscopic determination of growth, we used inverted microscope Nikon Eclipse TS2 (Amsterdam, Netherland) and examined the fungal growth in the wells of 96-well microtiter plates compared to the control (untreated yeast cells). MFC values were determined as concentrations without visible growth after serial sub-cultivation of 10 µL of samples at 37 °C for 24 h. Ketoconazole and amphotericin B (SigmaAldrich, Darmstadt, Germany) were used as an antifungal control. The tested flavonoids were obtained from Extrasynthese, Rhone, France.

C. albicans 13/15 = experiment: Microdilution assay, MIC and MFC; assay type: cell-based; details: Candida albicans, C. albicans 13/15, mean ± SD of three replicates; for MFC: read-out: MFC; for MIC: read-out: MIC
Text: as §2, §3

C. albicans 475/15 [7] = experiment: Microdilution assay, MIC and MFC; assay type: cell-based; details: Candida albicans, C. albicans 475/15, mean ± SD of three replicates; for MFC: read-out: MFC; for MIC: read-out: MIC
Text: as §2, §3

C. albicans 10/15 = experiment: Microdilution assay, MIC and MFC; assay type: cell-based; details: Candida albicans, C. albicans 10/15, mean ± SD of three replicates; for MFC: read-out: MFC; for MIC: read-out: MIC
Text: as §2, §3

[8] = test system: TIG-1 (human lung embryonic fibroblasts); details: read-out: LC50; TIG-1 cells; cited from earlier work
Candida albicans = experiment: Microdilution assay, MIC (strain not named); assay type: cell-based; details: C. albicans, this study, strain not given, read-out: minimum inhibitory concentration (MIC)
Text: as §2, §3

S. aureus efflux = test system: S. aureus efflux; set-up: method as in PMID 25961825; details: S. aureus; cited from earlier work
C. albicans = details: cited from earlier work
[9] = test system: HUVE (human umbilical vein endothelial) cells; details: read-out: LC50; cited from earlier work
C. albicans biofilm = details: 625–5000 µg/mL; C. albicans ATCC 90028; cited from earlier work

Row | SMILES | impact on CDR1 expression (CDR1 [3]) | GI50 [4] [µg/mL] | MFC (C. albicans 527/14) [µg/mL] | MIC (C. albicans 527/14) [µg/mL] | MFC (C. albicans 13/15) [µg/mL] | MIC (C. albicans 13/15) [µg/mL] | MFC (C. albicans 475/15 [7]) [µg/mL] | MIC (C. albicans 475/15 [7]) [µg/mL] | MFC (C. albicans 10/15) [µg/mL] | MIC (C. albicans 10/15) [µg/mL] | other results
1 | O=c1cc(-c2ccc(O)cc2)oc2cc(O[C@@H]3O[C@H](CO)[C@@H](O)[C@H](O)[C@H]3O)cc(O)c12 [Apigetrin, apigetrin] | downregulated; also recorded: inhibitory impact; also recorded: lowering CDR1 expression | 90 ± 1 (≈ 208 µM) |  |  |  |  |  |  |  |  | reduction of hyphal growth (words) [1]: lowest number of cells growing in the hyphal form; also recorded: strongest anti-hyphal potential; antibiofilm activity ([2]; MIC and subMICs): notably lowered; inhibition of biofilm formation ([2]; compound applied at MIC/2): > 60%; reduction of biofilm formation ([2]; concentration not given): more than 50%; CDR1 expression level, log2FC (CDR1 [3]; 30 min, normalized to ACT1): < −1 log2FC; cytotoxic effect (porcine liver cells PLP2; PLP2 cells): some cytotoxic effect; MIC (C. albicans 475/15 [5]): 50 µg/mL (≈ 116 µM); cytotoxicity (3T3-L1 pre-adipocytes): does not induce cytotoxicity
2 | CC(=O)N1CCN(c2ccc(OCC3COC(Cn4ccnc4)(c4ccc(Cl)cc4Cl)O3)cc2)CC1 (stereo not drawn) [Ketoconazole, reference compound] |  |  | 6.2 ± 0.1 (≈ 11.7 µM) | 3.1 ± 0.1 (≈ 5.83 µM) | 50 ± 0.2 (≈ 94.1 µM) | 1.6 ± 0.2 (≈ 3.01 µM) | 6.2 ± 0.1 (≈ 11.7 µM) | 3.1 ± 0.1 (≈ 5.83 µM) | 50 ± 0.1 (≈ 94.1 µM) | 3.1 ± 0.1 (≈ 5.83 µM) | impact on CDR1 expression (CDR1 [6]): lack; impact on ERG11 expression (words) (ERG11): lack
3 | O=c1cc(-c2ccc(O)c(O)c2)oc2cc(O)cc(O)c12 [Luteolin, luteolin] | did not exhibit any significant inhibitory potential | > 400 | 75 ± 20 (≈ 262 µM) | 37.5 ± 1 (≈ 131 µM) | 75 ± 2 (≈ 262 µM) | 37.5 ± 1 (≈ 131 µM) | 75 ± 2 (≈ 262 µM) | 37.5 ± 1 (≈ 131 µM) | 75 ± 2 (≈ 262 µM) | 37.5 ± 1 (≈ 131 µM) | CC50 [8]: 107 µM; MIC (Candida albicans): 37.5 µg/mL (≈ 131 µM); IC50, efflux inhibition (S. aureus efflux): 75 µg/mL (≈ 262 µM); cytotoxic effect (porcine liver cells PLP2): did not exhibit cytotoxic effect; MIC (C. albicans; clinical isolates and C. albicans 10231): > 83 µg/mL; MIC (C. albicans; different C. albicans strains, ref 13): 3100 µg/mL (≈ 10800 µM); MIC (C. albicans; different C. albicans strains, ref 15): > 1000 µg/mL; CC50 [9]: 57 µM; activity towards biofilm (C. albicans biofilm): inefficient
